Measurements taken from ChEMBL document CHEMBL3994618, “The long story of camptothecin: From traditional medicine to drugs” (Bioorg Med Chem Lett, 2017).

Assay: Drug excretion in human urine upto 24 hrs
Format: ADME
Details: read-out: Drug excretion

dose excreted at 24 h: 40%
SMILES: CC[C@@]1(O)C(=O)OCc2c1cc1n(c2=O)Cc2cc3c(CN(C)C)c(O)ccc3nc2-1 [TOPOTECAN]
